Assay results taken from the CheMixHub viscosity set.

Assay: xn = mol fraction of the nth substance listed

CCCCCCCCCCCCCCCCCCCCCCCC + CCCCCCC
Conditions | viscosity [mPa·s]
313.2 K, 101.3 kPa, x1 = 0.198 | 0.9672

CCOC(=O)c1ccccc1 + CCCCCCC
viscosity [mPa·s]
Conditions | 298.15 K | 303.15 K | 308.15 K | 313.15 K | 318.15 K
101 kPa, x1 = 0.1042 | – | 0.417 | 0.397 | 0.37 | –
101 kPa, x1 = 0.2052 | – | 0.475 | 0.447 | 0.42 | –
101 kPa, x1 = 0.3085 | – | 0.55 | 0.514 | 0.482 | –
101 kPa, x1 = 0.4071 | – | 0.63 | 0.591 | 0.55 | –
101 kPa, x1 = 0.5078 | – | 0.738 | 0.687 | 0.64 | –
101 kPa, x1 = 0.6071 | – | 0.865 | 0.802 | 0.745 | –
101 kPa, x1 = 0.7074 | – | 1.03 | 0.95 | 0.875 | –
101 kPa, x1 = 0.8047 | – | 1.217 | 1.12 | 1.03 | –
101 kPa, x1 = 0.9038 | – | 1.466 | 1.34 | 1.23 | –
101.3 kPa, x1 = 0.098 | 0.428 | – | 0.387 | – | 0.351
101.3 kPa, x1 = 0.1952 | 0.484 | – | 0.433 | – | 0.393
101.3 kPa, x1 = 0.2948 | 0.55 | – | 0.492 | – | 0.44
101.3 kPa, x1 = 0.3941 | 0.638 | – | 0.564 | – | 0.498
101.3 kPa, x1 = 0.4961 | 0.747 | – | 0.655 | – | 0.571
101.3 kPa, x1 = 0.5985 | 0.882 | – | 0.767 | – | 0.662
101.3 kPa, x1 = 0.6974 | 1.047 | – | 0.912 | – | 0.771
101.3 kPa, x1 = 0.7984 | 1.263 | – | 1.082 | – | 0.913
101.3 kPa, x1 = 0.8972 | 1.539 | – | 1.286 | – | 1.08

CC1CCCCC1 + CCCCCCCC
viscosity [mPa·s], 101 kPa
Conditions | 293.15 K | 298.15 K | 303.15 K | 308.15 K
x1 = 0.0401 | 0.5414 | 0.5075 | 0.482 | –
x1 = 0.1044 | – | 0.524 | 0.496 | 0.468
x1 = 0.1998 | 0.5583 | 0.5193 | 0.4944 | –
x1 = 0.2066 | – | 0.535 | 0.504 | 0.474
x1 = 0.2801 | 0.5689 | 0.5283 | 0.5018 | –
x1 = 0.3045 | – | 0.543 | 0.512 | 0.481
x1 = 0.3514 | 0.5781 | 0.5367 | 0.5067 | –
x1 = 0.4068 | – | 0.557 | 0.525 | 0.493
x1 = 0.4282 | 0.5879 | 0.5477 | 0.5161 | –
x1 = 0.5043 | – | 0.57 | 0.537 | 0.504
x1 = 0.6015 | – | 0.586 | 0.552 | 0.518
x1 = 0.6051 | 0.6189 | 0.5761 | 0.5389 | –
x1 = 0.6759 | 0.634 | 0.5912 | 0.5529 | –
x1 = 0.7015 | – | 0.603 | 0.567 | 0.532
x1 = 0.7572 | 0.6552 | 0.6123 | 0.5712 | –
x1 = 0.8023 | – | 0.624 | 0.587 | 0.55
x1 = 0.8382 | 0.6791 | 0.6323 | 0.5918 | –
x1 = 0.8984 | – | 0.646 | 0.607 | 0.568
x1 = 0.9197 | 0.7023 | 0.6539 | 0.6124 | –
x2 = 0.0861 | – | 0.655 | – | –
x2 = 0.1756 | – | 0.633 | – | –
x2 = 0.3246 | – | 0.602 | – | –
x2 = 0.4674 | – | 0.577 | – | –
x2 = 0.6154 | – | 0.559 | – | –
x2 = 0.7785 | – | 0.526 | – | –
x2 = 0.7797 | – | 0.535 | – | –

CCOC(=O)c1ccccc1 + CCCCCCCC
101 kPa
Conditions | viscosity [mPa·s]
298.15 K, x2 = 0.0634 | 1.743
298.15 K, x2 = 0.1034 | 1.624
298.15 K, x2 = 0.1463 | 1.503
298.15 K, x2 = 0.1843 | 1.405
298.15 K, x2 = 0.2315 | 1.299
298.15 K, x2 = 0.2774 | 1.203
298.15 K, x2 = 0.3224 | 1.125
298.15 K, x2 = 0.4189 | 0.973
298.15 K, x2 = 0.4608 | 0.92
298.15 K, x2 = 0.5113 | 0.861
298.15 K, x2 = 0.5549 | 0.813
298.15 K, x2 = 0.6018 | 0.767
298.15 K, x2 = 0.6476 | 0.726
298.15 K, x2 = 0.6978 | 0.686
298.15 K, x2 = 0.7588 | 0.644
298.15 K, x2 = 0.8037 | 0.616
298.15 K, x2 = 0.8646 | 0.583
298.15 K, x2 = 0.9214 | 0.556
303.15 K, x1 = 0.1144 | 0.526
303.15 K, x1 = 0.2227 | 0.58
303.15 K, x1 = 0.3291 | 0.655
303.15 K, x1 = 0.4327 | 0.738
303.15 K, x1 = 0.532 | 0.837
303.15 K, x1 = 0.6312 | 0.961
303.15 K, x1 = 0.7281 | 1.11
303.15 K, x1 = 0.8205 | 1.29
303.15 K, x1 = 0.9123 | 1.505
308.15 K, x1 = 0.1144 | 0.499
308.15 K, x1 = 0.2227 | 0.552
308.15 K, x1 = 0.3291 | 0.616
308.15 K, x1 = 0.4327 | 0.697
308.15 K, x1 = 0.532 | 0.786
308.15 K, x1 = 0.6312 | 0.896
308.15 K, x1 = 0.7281 | 1.033
308.15 K, x1 = 0.8205 | 1.197
308.15 K, x1 = 0.9123 | 1.385
308.15 K, x2 = 0.0649 | 1.485
308.15 K, x2 = 0.1092 | 1.382
308.15 K, x2 = 0.1488 | 1.3
308.15 K, x2 = 0.193 | 1.212
308.15 K, x2 = 0.2347 | 1.13
308.15 K, x2 = 0.2789 | 1.054
308.15 K, x2 = 0.3252 | 0.98
308.15 K, x2 = 0.3696 | 0.919
308.15 K, x2 = 0.4206 | 0.854
308.15 K, x2 = 0.4626 | 0.807
308.15 K, x2 = 0.5118 | 0.757
308.15 K, x2 = 0.5624 | 0.709
308.15 K, x2 = 0.5958 | 0.682
308.15 K, x2 = 0.6528 | 0.639
308.15 K, x2 = 0.7049 | 0.605
308.15 K, x2 = 0.756 | 0.575
308.15 K, x2 = 0.8027 | 0.55
308.15 K, x2 = 0.8565 | 0.525
308.15 K, x2 = 0.9175 | 0.501
313.15 K, x1 = 0.1144 | 0.468
313.15 K, x1 = 0.2227 | 0.516
313.15 K, x1 = 0.3291 | 0.574
313.15 K, x1 = 0.4327 | 0.649
313.15 K, x1 = 0.532 | 0.732
313.15 K, x1 = 0.6312 | 0.835
313.15 K, x1 = 0.7281 | 0.961
313.15 K, x1 = 0.8205 | 1.105
313.15 K, x1 = 0.9123 | 1.277
318.15 K, x2 = 0.0385 | 1.272
318.15 K, x2 = 0.0833 | 1.188
318.15 K, x2 = 0.1243 | 1.117
318.15 K, x2 = 0.1716 | 1.038
318.15 K, x2 = 0.2145 | 0.972
318.15 K, x2 = 0.263 | 0.905
318.15 K, x2 = 0.3062 | 0.85
318.15 K, x2 = 0.356 | 0.793
318.15 K, x2 = 0.4002 | 0.747
318.15 K, x2 = 0.4505 | 0.698
318.15 K, x2 = 0.4957 | 0.662
318.15 K, x2 = 0.5474 | 0.622
318.15 K, x2 = 0.5939 | 0.592
318.15 K, x2 = 0.6472 | 0.56
318.15 K, x2 = 0.6945 | 0.536
318.15 K, x2 = 0.7483 | 0.51
318.15 K, x2 = 0.7987 | 0.491
318.15 K, x2 = 0.8549 | 0.469
318.15 K, x2 = 0.9034 | 0.452

CC1CCCCC1 + CCCCCCCCCC
viscosity [mPa·s], 101 kPa
Conditions | 293.15 K | 298.15 K | 303.15 K | 308.15 K
x1 = 0.0406 | 0.9179 | 0.8528 | 0.7888 | –
x1 = 0.1014 | – | 0.843 | 0.787 | 0.731
x1 = 0.2029 | 0.879 | 0.8207 | 0.76 | –
x1 = 0.2034 | – | 0.824 | 0.77 | 0.716
x1 = 0.2805 | 0.8623 | 0.8054 | 0.747 | –
x1 = 0.3035 | – | 0.806 | 0.753 | 0.7
x1 = 0.3569 | 0.8458 | 0.7898 | 0.7352 | –
x1 = 0.4055 | – | 0.787 | 0.735 | 0.684
x1 = 0.4409 | 0.8287 | 0.7729 | 0.723 | –
x1 = 0.5004 | – | 0.769 | 0.719 | 0.669
x1 = 0.5991 | 0.7985 | 0.7421 | 0.7008 | –
x1 = 0.5998 | – | 0.751 | 0.702 | 0.654
x1 = 0.6756 | 0.7845 | 0.7282 | 0.6906 | –
x1 = 0.7041 | – | 0.731 | 0.684 | 0.637
x1 = 0.7618 | 0.7694 | 0.7135 | 0.6796 | –
x1 = 0.8039 | – | 0.713 | 0.667 | 0.621
x1 = 0.8475 | 0.7548 | 0.7009 | 0.6683 | –
x1 = 0.8993 | – | 0.695 | 0.651 | 0.606
x1 = 0.9148 | 0.7428 | 0.6913 | 0.6592 | –

CCCCCCCCCCCl + CCCCCCCCCC
viscosity [mPa·s], 101 kPa
Conditions | x2 = 0.1 | x2 = 0.2004 | x2 = 0.2954 | x2 = 0.3988 | x2 = 0.4972 | x2 = 0.593 | x2 = 0.6968 | x2 = 0.7947 | x2 = 0.8906
293.15 K | 1.796 | 1.66 | 1.539 | 1.419 | 1.315 | 1.225 | 1.136 | 1.063 | 0.997
298.15 K | 1.649 | 1.523 | 1.415 | 1.307 | 1.214 | 1.133 | 1.054 | 0.99 | 0.931
303.15 K | 1.5 | 1.388 | 1.291 | 1.196 | 1.114 | 1.042 | 0.973 | 0.917 | 0.867
308.15 K | 1.353 | 1.25 | 1.167 | 1.084 | 1.013 | 0.951 | 0.891 | 0.844 | 0.802

CCCCCCCCCl + CCCCCCCCCC
298 K, 101.3 kPa
Conditions | viscosity [mPa·s]
x2 = 0.1115 | 1.067
x2 = 0.2067 | 1.026
x2 = 0.3061 | 0.9966
x2 = 0.4041 | 0.969
x2 = 0.505 | 0.9433
x2 = 0.6124 | 0.9242
x2 = 0.707 | 0.8969
x2 = 0.797 | 0.8862
x2 = 0.8983 | 0.874

CCCCCl + CCCCCCCCCC
298 K, 101.3 kPa
Conditions | viscosity [mPa·s]
x2 = 0.1032 | 0.4681
x2 = 0.202 | 0.5006
x2 = 0.3087 | 0.5437
x2 = 0.3992 | 0.5768
x2 = 0.5065 | 0.6297
x2 = 0.5992 | 0.6636
x2 = 0.6974 | 0.7109
x2 = 0.7967 | 0.7607
x2 = 0.8968 | 0.811
